Literature values, collected in patent US9198935B2, “Hydrogen peroxide-based skin disinfectant” (VIROX TECHNOLOGIES INC., priority 2004, dated 2015).
Read-outs that look alike come from different tables or passages of the source.

Tested on: Staphylococcus aureus

OO [hydrogen peroxide]
time to achieve a greater than 6 log reduction in Staphylococcus aureus (25% w/w aqueous solution of hydrogen peroxide): 20 seconds | time to achieve a greater than 6 log reduction in Staphylococcus aureus (solution containing 3% w/w hydrogen peroxide): 20 minutes
